Experimental data published in ChEMBL document CHEMBL5143621, “Design, synthesis, and biological evaluation of β-carboline 1,3,4-oxadiazole based hybrids as HDAC inhibitors with potential antitumor effects” (Bioorg Med Chem Lett, 2022).
Calls of active or inactive are those of the source. The rule behind the calls is not given here.

What was measured:
HCT-116 [1] = assay: Antiproliferative activity against human HCT-116 cells assessed as inhibition of cell proliferation incubated for 72 hrs by MTT assay; type: functional, cell-based; settings: HCT-116, 72 h
Histone deacetylase 1 = Histone deacetylase 1 (Homo sapiens, UniProt Q13547); assay: Inhibition of HDAC1 (unknown origin)
Chain of Histone deacetylase 1 (Q13547 whole entry): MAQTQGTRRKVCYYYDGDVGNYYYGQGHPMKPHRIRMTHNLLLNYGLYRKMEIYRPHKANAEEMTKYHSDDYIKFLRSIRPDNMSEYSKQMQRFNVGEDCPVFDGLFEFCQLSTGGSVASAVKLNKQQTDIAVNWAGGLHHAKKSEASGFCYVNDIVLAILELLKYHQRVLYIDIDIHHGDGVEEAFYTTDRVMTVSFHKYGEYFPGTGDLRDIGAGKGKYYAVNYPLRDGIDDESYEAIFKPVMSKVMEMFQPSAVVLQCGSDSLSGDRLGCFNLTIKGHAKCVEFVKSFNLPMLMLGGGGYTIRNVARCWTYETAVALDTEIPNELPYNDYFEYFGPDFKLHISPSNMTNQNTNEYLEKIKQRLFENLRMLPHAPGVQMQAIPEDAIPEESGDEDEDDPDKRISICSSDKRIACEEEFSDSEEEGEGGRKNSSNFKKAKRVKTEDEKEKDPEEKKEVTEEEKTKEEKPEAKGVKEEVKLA

Histone deacetylase 2 = Histone deacetylase 2 (Homo sapiens, UniProt Q92769); assay: Inhibition of HDAC2 (unknown origin)
Chain of Histone deacetylase 2 (Q92769 whole entry): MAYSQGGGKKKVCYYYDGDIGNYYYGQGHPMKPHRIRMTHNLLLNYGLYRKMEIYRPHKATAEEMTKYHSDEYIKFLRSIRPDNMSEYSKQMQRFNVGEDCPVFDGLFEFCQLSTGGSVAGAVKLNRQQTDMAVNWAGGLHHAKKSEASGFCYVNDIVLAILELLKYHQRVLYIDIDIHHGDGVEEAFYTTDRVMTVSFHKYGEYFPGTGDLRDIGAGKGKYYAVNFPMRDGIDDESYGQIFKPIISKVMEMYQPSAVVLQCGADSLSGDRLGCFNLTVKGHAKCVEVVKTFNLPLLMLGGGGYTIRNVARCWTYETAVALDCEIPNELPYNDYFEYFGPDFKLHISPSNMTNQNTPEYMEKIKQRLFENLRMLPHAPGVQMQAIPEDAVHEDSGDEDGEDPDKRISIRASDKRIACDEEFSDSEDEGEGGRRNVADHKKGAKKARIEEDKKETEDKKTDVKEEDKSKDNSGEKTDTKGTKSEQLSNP

Histone deacetylase 3 = Histone deacetylase 3 (Homo sapiens, UniProt O15379); assay: Inhibition of HDAC3 (unknown origin)
Chain of Histone deacetylase 3 (O15379 whole entry): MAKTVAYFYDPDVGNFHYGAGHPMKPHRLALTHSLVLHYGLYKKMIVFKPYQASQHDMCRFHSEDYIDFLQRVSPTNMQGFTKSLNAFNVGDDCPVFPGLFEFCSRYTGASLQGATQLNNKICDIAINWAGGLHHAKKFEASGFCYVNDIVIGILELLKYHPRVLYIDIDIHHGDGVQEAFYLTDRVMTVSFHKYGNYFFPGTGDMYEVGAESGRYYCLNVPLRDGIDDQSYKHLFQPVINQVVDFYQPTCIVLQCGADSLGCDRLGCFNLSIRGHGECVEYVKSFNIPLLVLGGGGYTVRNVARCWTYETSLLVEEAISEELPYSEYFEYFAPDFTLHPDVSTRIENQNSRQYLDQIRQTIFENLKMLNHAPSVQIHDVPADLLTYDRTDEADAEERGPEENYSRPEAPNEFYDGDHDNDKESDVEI

[2] = molecular target: T1, Protein deacetylase HDAC6 (Homo sapiens, UniProt Q9UBN7); assay: Inhibition of HDAC6 (unknown origin)
T1 sequence (Q9UBN7 whole entry): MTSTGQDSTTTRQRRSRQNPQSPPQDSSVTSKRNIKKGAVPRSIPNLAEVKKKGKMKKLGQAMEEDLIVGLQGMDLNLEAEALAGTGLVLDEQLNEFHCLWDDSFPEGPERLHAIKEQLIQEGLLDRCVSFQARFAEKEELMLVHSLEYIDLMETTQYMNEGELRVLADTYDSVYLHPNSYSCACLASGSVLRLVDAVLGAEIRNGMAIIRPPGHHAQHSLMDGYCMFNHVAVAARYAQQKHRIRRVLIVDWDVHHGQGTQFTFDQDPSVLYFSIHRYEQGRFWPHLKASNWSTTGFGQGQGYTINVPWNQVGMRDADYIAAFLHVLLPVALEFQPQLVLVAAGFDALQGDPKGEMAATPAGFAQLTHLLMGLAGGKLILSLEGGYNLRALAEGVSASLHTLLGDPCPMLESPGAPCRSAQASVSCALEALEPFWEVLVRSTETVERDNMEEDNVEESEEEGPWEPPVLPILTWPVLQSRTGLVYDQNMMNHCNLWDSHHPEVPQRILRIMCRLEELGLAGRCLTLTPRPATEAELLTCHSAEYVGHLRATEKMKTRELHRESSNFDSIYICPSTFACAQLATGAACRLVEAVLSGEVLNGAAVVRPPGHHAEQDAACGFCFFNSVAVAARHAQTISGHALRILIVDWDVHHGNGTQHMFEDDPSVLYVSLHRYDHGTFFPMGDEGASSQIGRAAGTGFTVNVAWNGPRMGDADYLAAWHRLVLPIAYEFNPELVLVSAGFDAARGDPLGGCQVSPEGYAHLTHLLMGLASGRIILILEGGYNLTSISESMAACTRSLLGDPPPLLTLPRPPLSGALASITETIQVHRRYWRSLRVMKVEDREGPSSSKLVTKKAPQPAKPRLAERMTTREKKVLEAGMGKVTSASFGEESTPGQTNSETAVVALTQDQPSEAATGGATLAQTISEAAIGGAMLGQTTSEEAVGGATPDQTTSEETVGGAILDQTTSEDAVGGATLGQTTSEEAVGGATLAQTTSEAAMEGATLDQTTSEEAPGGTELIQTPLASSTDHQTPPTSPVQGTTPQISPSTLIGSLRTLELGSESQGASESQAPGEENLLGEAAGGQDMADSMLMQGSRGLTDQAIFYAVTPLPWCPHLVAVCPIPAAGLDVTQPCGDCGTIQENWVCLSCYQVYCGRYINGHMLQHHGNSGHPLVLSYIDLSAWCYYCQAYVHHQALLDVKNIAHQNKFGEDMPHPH

Histone deacetylase 8 = molecular target: T2, Histone deacetylase 8 (Homo sapiens, UniProt Q9BY41); assay: Inhibition of HDAC8 (unknown origin)
T2 sequence (Q9BY41 whole entry): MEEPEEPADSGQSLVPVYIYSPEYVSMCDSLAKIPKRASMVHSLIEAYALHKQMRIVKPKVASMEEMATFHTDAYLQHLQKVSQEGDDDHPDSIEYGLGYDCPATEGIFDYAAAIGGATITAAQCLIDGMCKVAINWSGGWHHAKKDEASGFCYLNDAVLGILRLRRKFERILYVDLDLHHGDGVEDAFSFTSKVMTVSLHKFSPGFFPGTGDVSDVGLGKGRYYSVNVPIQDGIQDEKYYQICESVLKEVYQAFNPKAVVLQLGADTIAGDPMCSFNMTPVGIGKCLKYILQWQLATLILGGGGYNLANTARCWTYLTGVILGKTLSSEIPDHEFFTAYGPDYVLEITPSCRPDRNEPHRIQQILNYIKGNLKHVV

A549 = assay: cells; type: functional, cell-based; settings: Homo sapiens, A549, 72 h
Description: Antiproliferative activity against human A549 cells assessed as inhibition of cell proliferation incubated for 72 hrs by MTT assay

MCF7 = assay: cells; type: functional, cell-based; settings: Homo sapiens, MCF7, 72 h
Description: Antiproliferative activity against human MCF7 cells assessed as inhibition of cell proliferation incubated for 72 hrs by MTT assay

SW480 = assay: cells; type: functional, cell-based; settings: Homo sapiens, SW480, 72 h
Description: Antiproliferative activity against human SW480 cells assessed as inhibition of cell proliferation incubated for 72 hrs by MTT assay

HCT-116 [3] = assay: Induction of apoptosis in human HCT-116 cells assessed as increase in number of brilliant blue apoptotic cells at 125 to 500 nM incubated for 48 hrs by Hoechst 33342 staining based fluorescence microscopic analysis; type: functional, cell-based; settings: dose 125-500 nM
HCT-116 [4] = assay: Inhibition of colony formation in human HCT-116 cell incubated for 48 hrs by crystal violet staining based analysis; type: functional; settings: dose 125-500 nM, DDE = dose-dependent effect
HCT-116 [5] = assay: Induction of apoptosis in human HCT-116 cells at 125 to 500 nM incubated for 48 hrs by AnnexinV-FITC/PI staining based flow cytometry; type: functional, cell-based; settings: dose 125-500 nM
HCT-116 [6] = assay: Inhibition of cell migration in human HCT-116 cells incubated for 48 hrs by wound healing scratch assay; type: functional, cell-based; settings: dose 125-500 nM, DDE = dose-dependent effect
in vitro = settings: human, L02 cells
Description: Cytotoxicity against human L02 cells assessed as inhibition of cell proliferation incubated for 72 hrs by MTT assay

## O=C(CCc1nnc(-c2cc3c([nH]c4ccccc43)c(-c3ccc(C(F)(F)F)cc3)n2)o1)NO
HCT-116 [1]
  IC50: 2.31 µM

## Nc1ccccc1NC(=O)c1ccc(-c2nnc(-c3cc4c([nH]c5ccccc54)c(-c4ccc(C(F)(F)F)cc4)n3)o2)cc1
HCT-116 [1]
  IC50: > 10 µM
Histone deacetylase 1
  IC50: > 0.6 µM

## O=C(NO)c1ccc(-c2nnc(-c3cc4c([nH]c5ccccc54)c(-c4ccc(C(F)(F)F)cc4)n3)o2)cc1
HCT-116 [1]
  IC50: 9.4 µM

## COc1cc(-c2nc(-c3nnc(CCCC(=O)NO)o3)cc3c2[nH]c2ccccc23)cc(OC)c1OC
HCT-116 [1]
  IC50: 1.85 µM

## COc1cc(-c2nc(-c3nnc(CCC(=O)NO)o3)cc3c2[nH]c2ccccc23)cc(OC)c1OC
HCT-116 [1]
  IC50: 6.97 µM

## O=C(CCc1nnc(-c2cc3c([nH]c4ccccc43)c(-c3ccccc3)n2)o1)NO
HCT-116 [1]
  IC50: > 10 µM

## COc1cc(-c2nc(-c3nnc(-c4ccc(C(=O)NO)cc4)o3)cc3c2[nH]c2ccccc23)cc(OC)c1OC
HCT-116 [1]
  IC50: > 10 µM

## O=C(CCCCc1nnc(-c2cc3c([nH]c4ccccc43)c(-c3ccc(C(F)(F)F)cc3)n2)o1)NO
HCT-116 [1]
  IC50: 0.173 µM
Histone deacetylase 1
  IC50: 0.0022 µM
Histone deacetylase 2
  IC50: 0.0022 µM
Histone deacetylase 3
  IC50: 0.0034 µM
[2]
  IC50: 0.006 µM
Histone deacetylase 8
  IC50: > 0.6 µM
A549
  IC50: 1.74 µM
MCF7
  IC50: 0.695 µM
SW480
  IC50: 0.382 µM
HCT-116 [3]
  Activity: Active
HCT-116 [4]
  inhibition: Dde
HCT-116 [5]
  Activity: Active
HCT-116 [6]
  inhibition: Dde
In vitro
  IC50 at 72 h: > 10 µM

## COc1cc(-c2nc(-c3nnc(CCCCC(=O)NO)o3)cc3c2[nH]c2ccccc23)cc(OC)c1OC
HCT-116 [1]
  IC50: 0.19 µM
Histone deacetylase 1
  IC50: 0.0014 µM
Histone deacetylase 2
  IC50: 0.0012 µM
Histone deacetylase 3
  IC50: 0.0036 µM
[2]
  IC50: 0.0073 µM
Histone deacetylase 8
  IC50: > 0.6 µM
A549
  IC50: 1.34 µM
MCF7
  IC50: 0.541 µM

## O=C(CCCc1nnc(-c2cc3c([nH]c4ccccc43)c(-c3ccc(C(F)(F)F)cc3)n2)o1)NO
HCT-116 [1]
  IC50: 1.36 µM

## O=C(CCCc1nnc(-c2cc3c([nH]c4ccccc43)c(-c3ccccc3)n2)o1)NO
HCT-116 [1]
  IC50: 7.18 µM

## O=C(CCCCc1nnc(-c2cc3c([nH]c4ccccc43)c(-c3ccccc3)n2)o1)NO
HCT-116 [1]
  IC50: 0.247 µM
Histone deacetylase 1
  IC50: 0.0012 µM
A549
  IC50: < 5 µM
MCF7
  IC50: 3.76 µM
